# Data taken from the supplement of paper PMC10307832.
# Key:
# Test in all cases: relative viability (nuclei count vs DMSO), 5 days (fraction); higher = more cells survive
# LOU-NH91 = test system: LOU-NH91
# In short: (§1)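 The day after seeding in 1536-well plates, lung cancer cell lines were treated by pin tool with a single drug, or with a fixed anchor-drug dose together with five library-drug doses (not always all listed) in √10 steps. After 5 days, a combined fix-and-stain solution (final 0.05% Triton X-100, 1% formaldehyde, 1 ug/ml Hoechst) was added. Nuclei counted on 4× images gave relative viability as treated counts over vehicle counts, reported as the median of duplicate plates.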
# NCI-H1395 = test system: NCI-H1395
# In short: as §1
# NCI-H2087 = test system: NCI-H2087
# In short: as §1
# NCI-H2126 = test system: NCI-H2126
# In short: as §1
# HARA = test system: HARA
# In short: as §1
# NCI-H2170 = test system: NCI-H2170
# In short: as §1
# RERF-LC-KJ = test system: RERF-LC-KJ
# In short: as §1
# NCI-H1993 = test system: NCI-H1993
# In short: as §1
# HOP-62 = test system: HOP-62
# In short: as §1
# COR-L 105 = test system: COR-L 105
# In short: as §1
# EMC-BAC-2 = test system: EMC-BAC-2
# In short: as §1
# BEN = test system: BEN
# In short: as §1
# UMC-11 = test system: UMC-11
# In short: as §1
# LXF-289 = test system: LXF-289
# In short: as §1
# H3255 = test system: H3255
# In short: as §1
# 201T = test system: 201T
# In short: as §1
# HCC-78 = test system: HCC-78
# In short: as §1
# SW 900 = test system: SW 900
# In short: as §1
# SK-MES-1 = test system: SK-MES-1
# In short: as §1
# NCI-H650 = test system: NCI-H650
# In short: as §1
# LC-2-ad = test system: LC-2-ad
# In short: as §1
# LU99A = test system: LU99A
# In short: as §1
compound,measurement,setting,value
CCNC(=O)c1noc(-c2cc(C(C)C)c(O)cc2O)c1-c1ccc(CN2CCOCC2)cc1 [Luminespib] + O=C(c1cc(Cc2n[nH]c(=O)c3ccccc23)ccc1F)N1CCN(C(=O)C2CC2)CC1 [Olaparib] (partner 8 µM),relative viability,LOU-NH91; first compound 0.002 µM,0.967
same,relative viability,LOU-NH91; first compound 0.006325 µM,0.89
same,relative viability,LOU-NH91; first compound 0.02 µM,0.445
same,relative viability,LOU-NH91; first compound 0.06325 µM,0.351
same,relative viability,LOU-NH91; first compound 0.2 µM,0.348
same,relative viability,NCI-H1395; first compound 0.002 µM,0.465
same,relative viability,NCI-H1395; first compound 0.006325 µM,0.454
same,relative viability,NCI-H1395; first compound 0.02 µM,0.427
same,relative viability,NCI-H1395; first compound 0.06325 µM,0.403
same,relative viability,NCI-H1395; first compound 0.2 µM,0.383
same,relative viability,NCI-H2087; first compound 0.002 µM,0.639
same,relative viability,NCI-H2087; first compound 0.006325 µM,0.518
same,relative viability,NCI-H2087; first compound 0.02 µM,0.559
same,relative viability,NCI-H2087; first compound 0.06325 µM,0.116
same,relative viability,NCI-H2087; first compound 0.2 µM,0.113
same,relative viability,NCI-H2126; first compound 0.002 µM,0.924
same,relative viability,NCI-H2126; first compound 0.006325 µM,0.887
same,relative viability,NCI-H2126; first compound 0.06325 µM,0.899
same,relative viability,NCI-H2126; first compound 0.2 µM,0.903
same,relative viability,HARA; first compound 0.002 µM,0.425
same,relative viability,HARA; first compound 0.006325 µM,0.814
same,relative viability,HARA; first compound 0.02 µM,0.997
same,relative viability,HARA; first compound 0.06325 µM,0.146
same,relative viability,HARA; first compound 0.2 µM,0.102
same,relative viability,NCI-H2170; first compound 0.002 µM,0.659
same,relative viability,NCI-H2170; first compound 0.006325 µM,0.539
same,relative viability,NCI-H2170; first compound 0.06325 µM,0.468
same,relative viability,NCI-H2170; first compound 0.2 µM,0.16
same,relative viability,RERF-LC-KJ; first compound 0.002 µM,0.857
same,relative viability,RERF-LC-KJ; first compound 0.006325 µM,0.934
same,relative viability,RERF-LC-KJ; first compound 0.02 µM,0.49
same,relative viability,RERF-LC-KJ; first compound 0.06325 µM,0.235
same,relative viability,RERF-LC-KJ; first compound 0.2 µM,0.212
same,relative viability,NCI-H1993; first compound 0.002 µM,1.09
same,relative viability,NCI-H1993; first compound 0.006325 µM,0.953
same,relative viability,NCI-H1993; first compound 0.02 µM,0.617
same,relative viability,NCI-H1993; first compound 0.06325 µM,0.903
same,relative viability,NCI-H1993; first compound 0.2 µM,0.39
same,relative viability,HOP-62; first compound 0.002 µM,0.533
same,relative viability,HOP-62; first compound 0.006325 µM,0.453
same,relative viability,HOP-62; first compound 0.02 µM,0.723
same,relative viability,HOP-62; first compound 0.06325 µM,0.0994
same,relative viability,HOP-62; first compound 0.2 µM,0.138
same,relative viability,COR-L 105; first compound 0.002 µM,0.737
same,relative viability,COR-L 105; first compound 0.006325 µM,0.647
same,relative viability,COR-L 105; first compound 0.02 µM,0.646
same,relative viability,COR-L 105; first compound 0.06325 µM,0.256
same,relative viability,COR-L 105; first compound 0.2 µM,0.295
same,relative viability,EMC-BAC-2; first compound 0.002 µM,0.489
same,relative viability,EMC-BAC-2; first compound 0.006325 µM,0.482
same,relative viability,EMC-BAC-2; first compound 0.02 µM,0.471
same,relative viability,EMC-BAC-2; first compound 0.06325 µM,0.234
same,relative viability,EMC-BAC-2; first compound 0.2 µM,0.242
same,relative viability,BEN; first compound 0.002 µM,1.24
same,relative viability,BEN; first compound 0.006325 µM,0.905
same,relative viability,BEN; first compound 0.02 µM,0.823
same,relative viability,BEN; first compound 0.06325 µM,0.273
same,relative viability,BEN; first compound 0.2 µM,0.279
same,relative viability,UMC-11; first compound 0.002 µM,0.391
same,relative viability,UMC-11; first compound 0.006325 µM,0.403
same,relative viability,UMC-11; first compound 0.02 µM,0.401
same,relative viability,UMC-11; first compound 0.06325 µM,0.205
same,relative viability,UMC-11; first compound 0.2 µM,0.149
same,relative viability,LXF-289; first compound 0.002 µM,1.01
same,relative viability,LXF-289; first compound 0.006325 µM,1.03
same,relative viability,LXF-289; first compound 0.02 µM,1.2
same,relative viability,LXF-289; first compound 0.06325 µM,0.99
same,relative viability,LXF-289; first compound 0.2 µM,0.805
same,relative viability,H3255; first compound 0.002 µM,0.59
same,relative viability,H3255; first compound 0.006325 µM,0.521
same,relative viability,H3255; first compound 0.02 µM,0.563
same,relative viability,H3255; first compound 0.06325 µM,0.337
same,relative viability,H3255; first compound 0.2 µM,0.253
same,relative viability,201T; first compound 0.002 µM,0.883
same,relative viability,201T; first compound 0.006325 µM,0.829
same,relative viability,201T; first compound 0.02 µM,0.87
same,relative viability,201T; first compound 0.06325 µM,0.803
same,relative viability,201T; first compound 0.2 µM,0.784
same,relative viability,HCC-78; first compound 0.002 µM,0.773
same,relative viability,HCC-78; first compound 0.006325 µM,0.785
same,relative viability,HCC-78; first compound 0.02 µM,0.723
same,relative viability,HCC-78; first compound 0.06325 µM,0.643
same,relative viability,HCC-78; first compound 0.2 µM,0.32
same,relative viability,SW 900; first compound 0.002 µM,0.688
same,relative viability,SW 900; first compound 0.006325 µM,0.81
same,relative viability,SW 900; first compound 0.02 µM,0.818
same,relative viability,SW 900; first compound 0.06325 µM,0.163
same,relative viability,SW 900; first compound 0.2 µM,0.152
same,relative viability,SK-MES-1; first compound 0.002 µM,0.713
same,relative viability,SK-MES-1; first compound 0.006325 µM,0.629
same,relative viability,SK-MES-1; first compound 0.02 µM,0.326
same,relative viability,SK-MES-1; first compound 0.06325 µM,0.17
same,relative viability,SK-MES-1; first compound 0.2 µM,0.157
same,relative viability,NCI-H650; first compound 0.002 µM,0.452
same,relative viability,NCI-H650; first compound 0.006325 µM,0.338
same,relative viability,NCI-H650; first compound 0.02 µM,0.34
same,relative viability,NCI-H650; first compound 0.06325 µM,0.061
same,relative viability,NCI-H650; first compound 0.2 µM,0.0723
same,relative viability,LC-2-ad; first compound 0.002 µM,0.704
same,relative viability,LC-2-ad; first compound 0.006325 µM,0.713
same,relative viability,LC-2-ad; first compound 0.02 µM,0.866
same,relative viability,LC-2-ad; first compound 0.06325 µM,0.48
same,relative viability,LC-2-ad; first compound 0.2 µM,0.297
same,relative viability,LU99A; first compound 0.002 µM,0.294
same,relative viability,LU99A; first compound 0.006325 µM,0.236
same,relative viability,LU99A; first compound 0.02 µM,0.226
same,relative viability,LU99A; first compound 0.06325 µM,0.174
same,relative viability,LU99A; first compound 0.2 µM,0.138
